Data set [1] deals with breast cancer cell line (MDA-MB-231). In words: Cancer proliferation inhibitory activity (SRB, GI50), MDA-MB-231. In kind it is cell-based. Particulars: Homo sapiens, 48 hours. The method in brief:
(§1)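 Human tumour cells in serum-supplemented RPMI 1640 received test compound (0.1 μM to 10 μM; untreated wells had 0.1% DMSO). Two days later they were TCA-fixed and SRB-stained, dye absorbance at 540 nm was recorded, and growth inhibition was expressed as GI50.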

Data set [2] relates to prostate cancer cell line (PC-3). In words: Cancer proliferation inhibitory activity (SRB, GI50), PC-3. Particulars: Homo sapiens, 48 hours. Format: cell-based. The method in brief:
as §1

For data set [3], the system named is colorectal cancer cell line (HCT-15). Description: Cancer proliferation inhibitory activity (SRB, GI50), HCT-15. Format: cell-based. Particulars: Homo sapiens, 48 hours. An outline of the steps:
as §1

Data set [4] has as its system lung cancer cell line (NCl-H23). In words: Cancer proliferation inhibitory activity (SRB, GI50), NCI-H23. In kind it is cell-based. Conditions: Homo sapiens, 48 hours. The method in brief: as §1
Data set [5] can be described thus: Body weight of mice in prostate cancer xenograft model. Conditions: 50 mg/kg (SAHA 100 mg/kg) once a day for 16 days. Format: in vivo. As to the method:
When the tumor size reached 40-60 mm^3, the mice were randomly grouped (4 mice per group), which were the non-treated group (10% dimethylacetamide, 10% tween 80 and 80% distilled water), the groups treated with the compounds of comparative examples 1 and 2 (Ajoene, 50 mg/kg), the groups treated with the compounds of examples 18 and 32 (50 mg/kg), and the group treated with the positive control SAHA (Vorinostat, 100 mg/kg). The treatment was performed once a day for 16 days in total. During the treatment, the tumor size was measured with a vernier caliper, followed by evaluation according to the following formula: length (mm)×width (mm)×height (mm)/2. The weights were measured regularly.
Upon completion of the treatment (16 days later), the mice were sacrificed and the tumor weights were measured. All the experiments were performed according to the experiment protocol approved by Institutional Animal care and Use Committee (IACUC), Korea Research Institute of Bioscience and Biotechnology (KRIBB).

The target of a further data set is T1, HDAC 8 (Homo sapiens, UniProt Q9BY41).
T1 sequence (Q9BY41 1-377): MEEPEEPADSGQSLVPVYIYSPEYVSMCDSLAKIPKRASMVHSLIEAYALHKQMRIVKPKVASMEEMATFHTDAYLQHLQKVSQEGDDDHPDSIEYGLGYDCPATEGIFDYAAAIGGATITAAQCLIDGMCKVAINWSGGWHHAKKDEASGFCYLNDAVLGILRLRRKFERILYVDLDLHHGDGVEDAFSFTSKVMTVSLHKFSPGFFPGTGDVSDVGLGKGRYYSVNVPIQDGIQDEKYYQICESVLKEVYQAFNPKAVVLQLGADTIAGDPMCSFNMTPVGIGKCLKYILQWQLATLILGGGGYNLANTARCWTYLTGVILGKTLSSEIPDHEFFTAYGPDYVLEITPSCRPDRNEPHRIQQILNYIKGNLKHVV
In words: HDAC enzyme fluorescence assay, HDAC 8. In kind it is biochemical. On the set-up: Inhibitory activity (%) HDAC 8: concentration or dose not given beside the values. Conditions: for Inhibitory activity (%) HDAC 8: (HDAC inhibitory activity of example compound/HDAC inhibitory activity of SAHA) × 100. The method in brief: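 Recombinant HDAC8 preincubated 10 min with compound in 25 mM HEPES pH 8.0, 137 mM NaCl, 1 mM MgCl2, 2.7 mM KCl, then Boc-Lys(acetyl)-AMC added at 37° C (level and time set per isoform). Trypsin development 20 min at room temperature, fluorescence 380/460 nm; activity expressed as percent relative to SAHA reference.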

Data set [6] deals with renal cancer cell line (ACHN). Description: Cancer proliferation inhibitory activity (SRB, GI50), ACHN. Format: cell-based. Conditions: Homo sapiens, 48 hours. The method in brief:
as §1

Read-outs that look alike come from different tables or passages of the source.

Regarding `COc1ccc([S+]([O-])C/C=C\SSCc2ccccc2)cc1` (stereo not shown) [Example 32, (Z)-1-benzyl-2-(3-(4-methoxyphenylsulfinyl)prop-1-enyl)disulfane], the GI50 was 5880 nM in data set [1]; 3190 nM in data set [2]; 1550 nM in data set [3]; 4370 nM in data set [4]; 3120 nM in data set [6]. Besides, the “changes in weight of mice / visible toxicity (FIG. 1)” value in data set [5] is given as “only normal weight increases were observed”. Moreover, the “Inhibitory activity (%) HDAC 8” value at HDAC 8 came out at 150.4%. For the same molecule, the IC50 on HDAC 8 (recombinant HDAC enzyme, Boc-Lys(acetyl)-AMC, read-out: IC50 HDAC 8) stood at 37 nM.

Take `CCCSS/C=C\C[S+]([O-])c1cccc(OC)c1` (stereo not shown) [Example 18, (Z)-1-(3-(3-methoxyphenylsulfinyl)prop-1-enyl)-2-propyldisulfane]: the GI50 in data set [1] is 2430 nM; in data set [2] it was 1920 nM; in data set [3], 1340 nM; in data set [4], 1590 nM; in data set [6], 2060 nM. Besides, in data set [5], the “changes in weight of mice / visible toxicity (FIG. 1)” value is recorded as “only normal weight increases were observed”. For the same molecule, the “Inhibitory activity (%) HDAC 8” value at HDAC 8 came to 147.2%. The IC50 on HDAC 8 (read-out: IC50 against HDAC 8) came to 35 nM.

One may read the GI50 as the concentration giving 50% growth inhibition. For orientation: IC50 means the midpoint of a concentration-inhibition curve.

The values above are taken from patent publication US11230525B2, “Organic sulfur compound, method for preparing same, and pharmaceutical composition for preventing or treating cancer or an inflammatory disease, containing same as active ingredient” (SOOKMYUNG WOMENS UNIVERSITY INDUSTRY-ACADEMIC COOPERATION …, priority 2016, dated 2022).
